Results published in patent US11407719B2, “Anti-inflammatory agents” (Resverlogix Corp., priority 2009, dated 2022).

Columns and labels:
[1] = system: VCAM-1 mRNA; test: Quantification of hVCAM mRNA; type: cell-based, human; set-up: key: Active: an active compound is one that causes a ≥20% inhibition in VCAM-1 mRNA at a concentration less than or equal to 10 μM; -1 mRNA at a concentration less than or equal to 10 μM; conditions: VCAM-1 mRNA by real-time PCR; HUVECs, 1 h pretreatment, tumor necrosis factor-α stimulation 24 h; concentration ≤10 μM
How it was run: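 HUVECs were pretreated 1 h with compound, then stimulated with TNF-α and harvested 24 h later. Isolated mRNA went into one-step qRT-PCR. hVCAM Ct values were normalized to an internal control and expressed as fold induction relative to control.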

[2] = system: hIL-6 mRNA; test: Quantification of hIL-6 mRNA; type: cell-based, human; set-up: key: Active: an active compound is one that causes a ≥20% inhibition in IL-6 mRNA at a concentration less than or equal to 10 μM; conditions: IL-6 mRNA by real-time PCR; differentiated U937 cells, 1 h pretreatment, lipopolysaccharide stimulation 3 h; concentration ≤10 μM
How it was run: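 U937 cells, differentiated for 3 days, were pretreated with compound for 1 h and then stimulated with E. coli LPS for 3 h at 37 °C. IL-6 mRNA was quantified by one-step qRT-PCR, with Ct normalized to an internal control, and fold induction was expressed relative to control.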

melting point [°C] | SMILES | Inhibition of VCAM-1 expression [1] | Inhibition of IL-6 expression [2]
213 to 214 | COc1cc(OC)c2c(=O)[nH]c(-c3cc(C)c(OCCN4CCN(C(C)=O)CC4)c(C)c3)nc2c1 [2-(4-(2-(4-Acetylpiperazin-1-yl)ethoxy)-3,5-dimethylphenyl)-5,7-dimethoxyquinazolin-4(3H)-one] | Active | Active
223 to 224 | COc1cc(OCCOc2ccccc2)cc2nc(-c3cc(C)nc(C)c3)[nH]c(=O)c12 [2-(2,6-Dimethylpyridin-4-yl)-5-methoxy-7-(2-phenoxyethoxy)quinazolin-4(3H)-one] | Active | Active

SMILES | melting point [°C] | Inhibition of VCAM-1 expression [1] | Inhibition of IL-6 expression [2]
COc1cc(OC)c2c(=O)[nH]c(-c3cc(C)c(OCCCCN4CCCC4)c(C)c3)nc2c1 [2-(3,5-Dimethyl-4-(4-(pyrrolidin-1-yl)butoxy)phenyl)-5,7-dimethoxyquinazolin-4(3H)-one] | 180 to 181 | Active | Active
